Source: the supplement of paper PMC11451515

Tested on: P12-Ichikawa
Test: cell viability relative to DMSO control; higher = less cytotoxic
Settings: 48 h
Procedure, shortened: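 Viability is a per-plate percentage relative to DMSO wells, with cell-free wells as background. CellTiter-Glo One luminescence was read after 48 h at 37°C on 1536-well plates (5 μl) of NOMO1 or SEM (500 cells/well) or P12-Ichikawa (1000 cells/well) leukemia cells. The cells had been adapted for at least four passages in each medium and pin-dosed with library compounds in DMSO from 47 μM to 0.79 nM in 11 threefold steps.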

[1] = HPLM + 10% dialyzed FBS, 0.000781 µM
[2] = HPLM + 10% dialyzed FBS, 0.00234 µM
[3] = HPLM + 10% dialyzed FBS, 0.00702 µM
[4] = HPLM + 10% dialyzed FBS, 0.0211 µM
[5] = HPLM + 10% dialyzed FBS, 0.0632 µM
[6] = HPLM + 10% dialyzed FBS, 0.19 µM
[7] = HPLM + 10% dialyzed FBS, 0.569 µM
[8] = HPLM + 10% dialyzed FBS, 1.71 µM
[9] = HPLM + 10% dialyzed FBS, 5.12 µM
[10] = HPLM + 10% dialyzed FBS, 15.4 µM
[11] = HPLM + 10% dialyzed FBS, 46.1 µM
[12] = RPMI 5 mM glucose + 10% FBS, 0.000781 µM
[13] = RPMI 5 mM glucose + 10% FBS, 0.00234 µM
[14] = RPMI 5 mM glucose + 10% FBS, 0.00702 µM
[15] = RPMI 5 mM glucose + 10% FBS, 0.0211 µM
[16] = RPMI 5 mM glucose + 10% FBS, 0.0632 µM
[17] = RPMI 5 mM glucose + 10% FBS, 0.19 µM
[18] = RPMI 5 mM glucose + 10% FBS, 0.569 µM
[19] = RPMI 5 mM glucose + 10% FBS, 1.71 µM
[20] = RPMI 5 mM glucose + 10% FBS, 5.12 µM
[21] = RPMI 5 mM glucose + 10% FBS, 15.4 µM
[22] = RPMI 5 mM glucose + 10% FBS, 46.1 µM
[23] = RPMI 5 mM glucose + 10% dialyzed FBS, 0.000781 µM
[24] = RPMI 5 mM glucose + 10% dialyzed FBS, 0.00234 µM
[25] = RPMI 5 mM glucose + 10% dialyzed FBS, 0.00702 µM
[26] = RPMI 5 mM glucose + 10% dialyzed FBS, 0.0211 µM
[27] = RPMI 5 mM glucose + 10% dialyzed FBS, 0.0632 µM
[28] = RPMI 5 mM glucose + 10% dialyzed FBS, 0.19 µM
[29] = RPMI 5 mM glucose + 10% dialyzed FBS, 0.569 µM
[30] = RPMI 5 mM glucose + 10% dialyzed FBS, 1.71 µM
[31] = RPMI 5 mM glucose + 10% dialyzed FBS, 5.12 µM
[32] = RPMI 5 mM glucose + 10% dialyzed FBS, 15.4 µM
[33] = RPMI 5 mM glucose + 10% dialyzed FBS, 46.1 µM

SMILES	cell viability [1]	cell viability [2]	cell viability [3]	cell viability [4]	cell viability [5]	cell viability [6]	cell viability [7]	cell viability [8]	cell viability [9]	cell viability [10]	cell viability [11]	cell viability [12]	cell viability [13]	cell viability [14]	cell viability [15]	cell viability [16]	cell viability [17]	cell viability [18]	cell viability [19]	cell viability [20]	cell viability [21]	cell viability [22]	cell viability [23]	cell viability [24]	cell viability [25]	cell viability [26]	cell viability [27]	cell viability [28]	cell viability [29]	cell viability [30]	cell viability [31]	cell viability [32]	cell viability [33]
Cc1nc(Nc2n[nH]c3c2CN(C(=O)N[C@H](CN(C)C)c2ccccc2)C3(C)C)c2sccc2n1	84.9%	84.7%	76.4%	81%	75.1%	73.5%	72.6%	53.9%	52.3%	45.4%	15.6%	82.3%	81.7%	70.8%	60%	62.3%	59.3%	53.4%	38.5%	41.4%	27.7%	12.8%	80%	81.4%	77.2%	72.1%	63.6%	56%	51.4%	40.6%	38.8%	32.3%	15.8%
COC1=CC=C2/C3=N/CCN3\C(=N/C2=C1OC)NC(=O)C4=CC=CN=C4	113%	124%	110%	117%	129%	118%	113%	123%	108%	92.6%	89.7%	108%	110%	115%	108%	114%	115%	104%	102%	78.8%	73.4%	58%	111%	120%	115%	119%	115%	117%	111%	105%	97.3%	86.1%	65.9%
Nc1ncnc2c1nc(Cl)n2[C@@H]1O[C@H](CO)[C@@H](O)[C@H]1O	123%	125%	125%	121%	121%	122%	126%	125%	118%	103%	58.7%																						
COC1=CC=C(C=C1O)C/2=C/C(=O)C3=C(O2)C=C(O[C@@H]4O[C@H](CO[C@@H]5O[C@@H](C)[C@H](O)[C@@H](O)[C@H]5O)[C@@H](O)[C@H](O)[C@H]4O)C=C3O	108%	112%	121%	121%	115%	116%	118%	118%	116%	123%	122%	113%	113%	118%	119%	137%	116%	126%	115%	123%	113%	131%	116%	117%	117%	125%	122%	125%	126%	130%	118%	121%	127%
N#C/N=C(\NCCCCCCOc1ccc(Cl)cc1)Nc1ccncc1	92.5%	30.8%	7.9%	7.51%	7.45%	6.55%	6.06%	4.77%	5.75%	5.32%	2.54%	101%	66.3%	8.62%	9.03%	8.69%	8.93%	8.18%	6.73%	5.76%	5.53%	3.94%	117%	45.9%	8.98%	8.5%	8.43%	8.45%	8.57%	6.65%	6.26%	5.72%	2.79%
C[C@](N)(Cc1ccc(O)c(O)c1)C(=O)O	95.1%	90.6%	91.4%	96.8%	102%	87.7%	77%	90.4%	87.8%	81.2%	84.8%	90.8%	93.3%	87.2%	89.3%	93.3%	92.9%	83.2%	81.1%	81%	80.8%	84.9%	85.1%	85.1%	83.5%	88.2%	89.3%	82.1%	82.5%	81.8%	76.1%	81.8%	81.4%
CCOC(=O)\C1=C\[C@@H](OC(CC)CC)[C@H](NC(C)=O)[C@@H](N)C1	98.9%	95%	92.3%	97.3%	92.3%	103%	96.9%	96%	99.6%	100%	94.9%	86%	95.3%	97.4%	95.8%	94.3%	102%	95.7%	88.5%	102%	100%	99.9%	87.7%	79.3%	86.5%	94.8%	90.7%	81.4%	88.8%	86.2%	87.4%	84.8%	99.3%
C[S+](=O)([O-])c1ccc(Oc2cc(F)cc(C#N)c2)c2c1[C@H](O)C(F)(F)C2	92.8%	96.9%	102%	100%	102%	107%	103%	104%	110%	109%	96.3%	91.5%	100%	103%	117%	108%	107%	112%	105%	105%	106%	97.8%	92.6%	105%	108%	110%	115%	110%	104%	110%	110%	104%	106%
